{
  "source": "patent US20240165089A1",
  "about": "“METHOD FOR TREATING MYOPIA WITH VINPOCETINE” (EYE HOSPITAL, WENZHOU MEDICAL UNIVERSITY, priority 2021, published 2024)",
  "key": {"[1]": {"tested_on": "form deprivation myopia (FDM) guinea pig model", "assay": "FDM guinea pig model, systemic (gavage) administration", "type": "in vivo", "details": "for axial length difference between the eyes / vitreous chamber depth difference between the eyes / refraction difference between the eyes / body weight: FDM; for refraction difference between the eyes: end of treatment (2 weeks); for body weight / mean weight decrease vs solvent group: vinpocetine 50 mg/kg/d gavage", "from_the_text": "The form deprivation myopia animal model and the method for evaluating the efficacy of vinpocetine for myopia treatment used in this experiment were the same as other relevant embodiments (local administration) in this application. Among them, the establishment of a guinea pig model of form deprivation myopia (FDM) and the gavage administration were manipulated and performed referring to the published literature in the inventor's laboratory. […] On the first day of the experiment, form deprivation (FD) myopia modeling began at 8 a.m. on the guinea pigs. The form deprivation myopia model adopted the mask method. The hood was made by the inventors using a 10-inch milky white non-toxic latex balloon. The right eye of the individual guinea pig for modeling was covered by the hood (experimental eye), and the left eye was not covered by the hood (contralateral eye). FD induction was continued during the entire vinpocetine efficacy experiment cycle by gavage administration, and the hood was only briefly removed during eye testing (such as refraction testing). […] The administration route was gavage administration. […] Administration was performed once a day for 2 weeks. […] 2017). Without adding other pharmaceutical excipients or other compounds, the inventors directly and completely dissolved the vinpocetine compound powder in 0.5% methylcellulose solvent (sterile water+methylcellulose) to prepare a vinpocetine preparation (gavage liquid) at 10 mg/mL and 20 mg/mL. The overall appearance of the preparation at room temperature was clear, transparent, and uniform, with no suspended matter visible to the naked eye. The preparation process of the preparation may use conventional physical and chemical solubilization means such as heating, stirring, and pH adjustment as appropriate, and no compounds would precipitate before administration of the preparation."}, "rabbits": {"tested_on": "rabbits", "details": "rabbit, in vivo, cited from earlier work"}, "[2]": {"tested_on": "form deprivation myopia model of guinea pigs", "assay": "FDM guinea pig model, eye drops (non-invasive administration)", "type": "in vivo", "details": "for refraction difference between the eyes: FDM", "experimental": "The purpose of this experiment was to evaluate the effect of vinpocetine on myopia through non-invasive administration. All tested drugs were formulated into eye drops. […] No other active substances or excipients were added to the above eye drops."}, "guinea pigs": {"tested_on": "guinea pigs", "assay": "safety observation during local administration to young guinea pigs", "type": "in vivo, guinea pig", "from_the_text": "three-week-old tricolor guinea pigs (both male and female, simulating humans aged 3-26 years old) were used and raised in the experimental animal room of Wenzhou Medical University in a 12-hour light (400-500 lux)/12-hour dark environment with free access to water and food. The myopia model adopted monocular form deprivation (FD) and lens induction (LI) modeling methods. […] In the lens induction group, a −4D lens was fixed in front of the right eye of the animal, and the left eye obtained normal vision. For the above animals, the lenses were cleaned twice a day to prevent the lenses from blurring. The animals in the experimental group were administrated at 9:00-9:30 am every day. […] The administration process for each animal was controlled in about 10 seconds. Administration began on the day of modeling, and was continuous for 2 weeks for the form deprivation group and was continuous for 1 week for the lens induction group. This experiment has been reviewed by the Experimental Animal Ethics Committee of Wenzhou Medical University."}, "[3]": {"details": "rats; cited from earlier work"}, "[4]": {"tested_on": "form deprivation myopia model of guinea pigs", "assay": "FDM guinea pig model, subconjunctival injection, salmeterol/tiotropium/vinpocetine", "details": "FDM, vinpocetine 1 μM alone, subconjunctival, 2 weeks", "from_the_text": "The form deprivation myopia model of guinea pigs described in the present invention was used to evaluate the efficacy. […] On the first day of the experiment, guinea pigs were subjected to form deprivation at 8 a.m. using a mask method, with the right eye covered (experimental eye) and the left eye uncovered (contralateral eye). Starting from the day of modeling, solvents or drugs for the corresponding groups were given to the experimental eyes at 9-10 a.m. every day by eyeball subconjunctival injection at an injection volume of 100 μL, once a day for 2 weeks. The refraction and axial parameters of the animals were detected before the start of the efficacy experiment and at the end of the experiment. All data collection and processing methods were the same as in other embodiments of the present invention. The statistical basis was the difference between the experimental eye and the contralateral eye of the same subject individual."}, "[5]": {"details": "cited from earlier work"}, "[6]": {"details": "vinpocetine 50 mg/kg gavage, 2 weeks"}, "[7]": {"details": "vinpocetine 100 mg/kg gavage, 2 weeks"}, "[8]": {"details": "vinpocetine 5 μM eye drops, 2 weeks"}, "[9]": {"details": "vinpocetine 5 μM eye drops, 2 weeks (rounded and actual value)"}},
  "note": "“And” between values parts separate entries of the source, which are not always exact repeats. Identical values can stand only once. Like-named read-outs stand apart in the source and are kept apart here.",
  "data": [
    {"smiles": "CCOC(=O)C1=C[C@]2(CC)CCCN3CCc4c(n1c1ccccc41)[C@@H]32", "note": "[vinpocetine]", "values": [
      {"measurement": "axial length difference between the eyes", "setting": "[1]; [6]", "result": "0.13±0.05", "unit": "mm"},
      {"measurement": "vitreous chamber depth difference between the eyes", "setting": "[1]; [6]", "result": "0.13±0.07", "unit": "mm"},
      {"measurement": "refraction difference between the eyes", "setting": "[1]; vinpocetine 50 mg/kg gavage", "result": "−5.71±2.41", "unit": "D"},
      {"measurement": "body weight", "setting": "[1]; 1 week", "result": "188 ± 22.9", "unit": "g"},
      {"measurement": "body weight", "setting": "[1]; 2 weeks", "result": "210 ± 21.9", "unit": "g"},
      {"measurement": "axial length difference between the eyes", "setting": "[1]; [7]", "result": "0.11±0.05", "unit": "mm"},
      {"measurement": "vitreous chamber depth difference between the eyes", "setting": "[1]; [7]", "result": "0.10±0.06", "unit": "mm"},
      {"measurement": "refraction difference between the eyes", "setting": "[1]; vinpocetine 100 mg/kg gavage", "result": "−5.223±2.20", "unit": "D"},
      {"measurement": "mean weight decrease vs solvent group", "setting": "[1]; 1 week", "result": 9.9, "unit": "%"},
      {"measurement": "mean weight decrease vs solvent group", "setting": "[1]; 2 weeks", "result": 8.4, "unit": "%"},
      {"measurement": "toxicity findings", "setting": "rabbits; 75 mg/kg/day", "result": "without any obvious abnormalities"},
      {"measurement": "toxicity findings", "setting": "rabbits; 150 mg/kg", "result": "toxic effects of weight loss and food intake reduction"},
      {"measurement": "refraction difference between the eyes", "setting": "[2]; vinpocetine 1 μM eye drops 25 μL twice a day, 2 weeks", "result": "−4.81±1.72", "unit": "D"},
      {"measurement": "refraction difference between the eyes", "setting": "[2]; vinpocetine 5 μM eye drops 25 μL twice a day, 2 weeks", "result": "−3.80±1.16", "unit": "D"},
      {"measurement": "refraction inhibition rate", "setting": "[2]; vinpocetine 1 μM eye drops, 2 weeks", "result": 26.7, "unit": "%"},
      {"measurement": "inhibition rate for the axial length", "setting": "[2]; [8]", "result": 41.4, "unit": "%"},
      {"measurement": "inhibition rate for the vitreous chamber depth", "setting": "[2]; [8]", "result": 38.6, "unit": "%"},
      {"measurement": "refraction inhibition rate", "setting": "[2]; [8]", "result": 42.1, "unit": "%"},
      {"measurement": "axial length difference between the eyes", "setting": "[2]; [9]", "result": "0.09±0.04 mm and 0.0925±0.0406 mm"},
      {"measurement": "vitreous chamber depth difference between the eyes", "setting": "[2]; [9]", "result": "0.09±0.04 mm and 0.0869±0.0448 mm"},
      {"measurement": "common clinical adverse reactions or toxic manifestations such as weight loss", "setting": "guinea pigs; guinea pig, in vivo", "result": "no individual was observed to have common clinical adverse reactions or toxic manifestations"},
      {"measurement": "allergic phenomenon", "setting": "guinea pigs; local administration of vinpocetine", "result": "no allergic phenomenon"},
      {"measurement": "changes in the pupil size of the test eyes", "setting": "guinea pigs; local administration of vinpocetine to young guinea pigs", "result": "No significant changes"},
      {"measurement": "ocular abnormalities", "setting": "guinea pigs; vinpocetine group, local administration", "result": "No ocular abnormalities"},
      {"measurement": "oral bioavailability", "setting": "[3]", "result": 52, "unit": "%"},
      {"measurement": "refraction change towards negative, axial length elongation and vitreous chamber depth increase vs negative control", "setting": "[4]", "result": "significantly inhibited"},
      {"measurement": "solubility in water", "setting": "[5]", "result": "almost insoluble in water"},
      {"measurement": "solubility in 0.5% methylcellulose", "setting": "[5]; room temperature", "result": 200, "unit": "mg/mL"},
      {"measurement": "solubility in water", "setting": "[5]; room temperature", "result": 0.0024, "unit": "mg/mL"}
    ]}
  ]
}
